Measurements: the supplement of paper PMC10307832

Experiments:
Assay in all cases: relative viability (nuclei count vs DMSO), 5 days (fraction); higher = more cells survive
GSK126 + AZD7762 = compound: CC[C@H](C)N1C=C(C2=C(C=C(C=C21)C3=CN=C(C=C3)N4CCNCC4)C(=O)NCC5=C(C=C(NC5=O)C)C)C [GSK126] + NC(=O)Nc1cc(-c2cccc(F)c2)sc1C(=O)N[C@H]1CCCNC1 [AZD7762] (partner 0.2 µM)
How it was run: (§1)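 Each reported value is a median over duplicate plates. It expresses relative viability: treated-well nuclei count divided by vehicle-well nuclei count. Lung cancer cell lines in 1536-well plates were dosed by pin tool a day after seeding, alone with one drug or with a fixed anchor-drug dose plus five library-drug doses (not always all listed) in √10 steps, and nuclei were counted after 5 days.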

Carboplatin + Olaparib = compound: C1CC(C1)(C(=O)O)C(=O)O.[NH2-].[NH2-].[Pt+2] [Carboplatin] + O=C(c1cc(Cc2n[nH]c(=O)c3ccccc23)ccc1F)N1CCN(C(=O)C2CC2)CC1 [Olaparib] (partner 8 µM)
How it was run: as §1

GSK126 + Dasatinib = compound: CC[C@H](C)N1C=C(C2=C(C=C(C=C21)C3=CN=C(C=C3)N4CCNCC4)C(=O)NCC5=C(C=C(NC5=O)C)C)C [GSK126] + Cc1nc(Nc2ncc(C(=O)Nc3c(C)cccc3Cl)s2)cc(N2CCN(CCO)CC2)n1 [Dasatinib] (partner 0.075 µM)
How it was run: as §1

GSK126 + Pictilisib = compound: CC[C@H](C)N1C=C(C2=C(C=C(C=C21)C3=CN=C(C=C3)N4CCNCC4)C(=O)NCC5=C(C=C(NC5=O)C)C)C [GSK126] + CS(=O)(=O)N1CCN(Cc2cc3nc(-c4cccc5[nH]ncc45)nc(N4CCOCC4)c3s2)CC1 [Pictilisib] (partner 1 µM)
How it was run: as §1

Cell Line	relative viability (GSK126 + AZD7762; first compound 0.08 µM)	relative viability (GSK126 + AZD7762; first compound 0.253 µM)	relative viability (GSK126 + AZD7762; first compound 0.8 µM)	relative viability (GSK126 + AZD7762; first compound 2.53 µM)	relative viability (GSK126 + AZD7762; first compound 8 µM)	relative viability (Carboplatin + Olaparib; first compound 0.08 µM)	relative viability (Carboplatin + Olaparib; first compound 0.253 µM)	relative viability (Carboplatin + Olaparib; first compound 0.8 µM)	relative viability (Carboplatin + Olaparib; first compound 2.53 µM)	relative viability (Carboplatin + Olaparib; first compound 8 µM)	relative viability (GSK126 + Dasatinib; first compound 0.08 µM)	relative viability (GSK126 + Dasatinib; first compound 0.253 µM)	relative viability (GSK126 + Dasatinib; first compound 0.8 µM)	relative viability (GSK126 + Dasatinib; first compound 2.53 µM)	relative viability (GSK126 + Dasatinib; first compound 8 µM)	relative viability (GSK126 + Pictilisib; first compound 0.08 µM)	relative viability (GSK126 + Pictilisib; first compound 0.253 µM)	relative viability (GSK126 + Pictilisib; first compound 0.8 µM)	relative viability (GSK126 + Pictilisib; first compound 2.53 µM)	relative viability (GSK126 + Pictilisib; first compound 8 µM)
ChaGo-K-1	0.881	0.87	0.836	0.893	0.874	0.43	0.409	0.376	0.332	0.362	0.653	0.552	0.629	0.572	0.547	0.831	0.656	0.746	0.722	0.649
EBC-1						0.775	0.694	0.725	0.624	0.567						0.42	0.321	0.41	0.321	0.25
EKVX	0.648	0.747	0.753	0.787	0.672	0.856	0.81	0.872	0.734	0.671	0.523	0.309	0.543	0.589	0.508	0.417	0.474	0.408	0.518	0.353
EMC-BAC-2	1.05	1.1	1.1	1.09	1.04	0.483	0.484	0.447	0.461	0.385	0.346	0.339	0.176	0.259	0.332	0.516	0.549	0.496	0.53	0.592
EPLC-272H	0.272	0.296	0.209	0.262	0.112	0.857	0.777	0.798	0.73	0.527	0.456	0.375	0.321	0.404	0.327	0.35	0.337	0.26	0.329	0.3
H3255	1.08	0.887	0.938	1.05	0.788	0.567	0.643	0.522	0.531	0.434	0.396	0.383	0.393	0.419	0.346	0.472	0.512	0.492	0.466	0.441
HARA	0.379	0.397	0.4	0.266	0.203	0.881	0.794	0.806	0.775	0.692	0.3	0.281	0.226	0.262	0.241	0.394	0.421	0.48	0.411	0.37
HCC-15	1.36	1.17	1.12	0.645	1.07	0.664	0.729	0.693	0.57	0.492	0.728	0.671	0.578	0.609	0.653	0.767	0.709	0.698	0.673	0.676
HCC-44	1.04	1.12	0.99	0.983	1.01	1.02	0.93	0.972	0.944	0.952						0.643	0.534	0.894	0.61	0.591
